# Like-named read-outs stand apart in the source and are kept apart here.
# Assays:
# [1] = tested on: Jurkat cells; assay: Measuring metabolically active cells with quinone coelenterazine derivatives; type: cell-based, human; settings: Jurkat cell dilutions; 30 minute incubation; Oplophorus luciferase detection reagent
# Experimental: Two-fold serial dilutions of Jurkat cells were prepared in PBS, and 50 μl per well transferred to wells in 96-well plates. Compound PBI 4600 and 4601 were diluted in PBS to make 50 μM and 100 μM stocks, respectively. 10 μl of prepared compound stocks were added to the cells, and the cells were placed into 37° C., 5% CO2 incubator. Following a 30 minute incubation, the cells were removed from incubator, cooled at room temperature for 10 minutes, and 50 μl of Oplophorus luciferase detection reagent (Promega Corporation) added directly to the wells. The samples were mixed, incubated at room temperature for 20 minutes, and luminescence measured.
# [2] = biological target: T1, rat diaphorase (Rattus norvegicus, UniProt P05982); type: biochemical; settings: for Fluorescence time course, Rat: 10 uM NADH
# T1 construct: purchased Sigma
# T1 sequence (P05982 2-274 limits assumed): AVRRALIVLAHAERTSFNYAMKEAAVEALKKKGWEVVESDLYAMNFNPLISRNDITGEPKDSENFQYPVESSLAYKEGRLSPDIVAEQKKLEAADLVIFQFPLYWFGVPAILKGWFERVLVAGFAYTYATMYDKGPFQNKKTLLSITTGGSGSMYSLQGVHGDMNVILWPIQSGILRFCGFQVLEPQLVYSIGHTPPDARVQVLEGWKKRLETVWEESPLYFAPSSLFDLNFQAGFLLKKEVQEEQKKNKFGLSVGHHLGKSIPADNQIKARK
# [3] = tested on: Clostridium diaphorase; assay: Fluorescent NADH detection assay, Clostridium diaphorase; type: biochemical; settings: for FLUs: 1 u/ml Clostridium diaphorase; for Fluorescence time course, Clostridium: 10 uM NADH
# Experimental: Each fluorescent substrate (PBI-4412, 4413, 4440, and 4441) was incubated at 920 μM with 0 μM or 10 μM NADH (Sigma) or a titration of NADH (Table 8) and 1 u/ml rat diaphorase (Sigma) or 1 u/ml Clostridium diaphorase (Sigma) in a volume of 100 μl in 50 mM Tris pH 7.5. Single reactions were prepared in the wells of a 96-well black plate at room temperature. Fluorescence was monitored over the course of two hours at excitation and emission wavelengths of 485 and 527, respectively, using a fluorescence plate reader. […] Table 7 and FIGS. 24a-b show the reaction time course with each substrate with 10 uM NADH. Table 8 and FIG. 25 show the NADH titration at 60 minutes with PBI-4440 and 4412 with rat diaphorase.
# [4] = tested on: HeLa cells; assay: Fluorescent imaging of live cells; type: cell-based; settings: 10 μM substrate
# Experimental: HeLa cells were plated at 40,000 cell/well into wells of an 8-well chambered coverslip and incubated at 37° C.+5% CO2. The media (DMEM) was replaced with warm complete media (with 10% FBS) containing 10 μM PBI-4412, 4413, 4440 or 4441. Cells were then transferred to a confocal microscope for imaging using 10% λ488 nm laser power (4412, 4413, and 4441) or 5% laser power (4440). All images (FIGS. 6a-d) are at 30× magnification.
# [5] = tested on: HEK293 cells; assay: Measuring metabolically active cells with quinone fluorescein derivatives; type: cell-based; settings: HEK293 cell dilutions; 60 minutes; 480ex/530em
# Experimental: i. Two-fold serial dilutions of HEK293 cells were prepared in full DMEM media, and 100 μl per well were transferred into wells of 96-well plates. Compounds PBI 4440 and 4412 were diluted in full DMEM media to make 20 μM and 10 μM stocks, respectively. 100 μl of the prepared compound stocks were added to the cells, and the cells were incubated for 60 minutes in a 37° C., 5% CO2 incubator. Following incubation, the cells were removed from incubator, and fluorescence measured with Tecan Infinite 500 at 480ex/Em530em wavelength.
# [6] = 0 μM NADH, 60 min, 1 u/ml rat diaphorase
# [7] = 10 μM NADH, 60 min, 1 u/ml rat diaphorase, substrate 920 μM
# [8] = 10 μM NADH, 60 min, substrate 920 μM
compound,measurement,setting,value
CC1=C(C)C(=O)C(C(C)(C)CC(=O)N(C)CCN(C)C(=O)Oc2c(Cc3ccccc3)nc3c(Cc4ccccc4)nc(-c4ccccc4)cn23)=C(C)C1=O [PBI 4601],relationship of luminescence to cell number,[1],linear correlation between cell number and luminescence
"CC1=CC(=O)C(C)=C(C(C)(C)CC(=O)N(C)CCN(C)C(=O)Oc2ccc3c(c2)Oc2cc(OC(=O)N(C)CCN(C)C(=O)CC(C)(C)C4=C(C)C(=O)C=C(C)C4=O)ccc2C32OC(=O)c3ccccc32)C1=O [PBI 4413, Bis-quinone trimethyllock diamine fluorescein]",FLUs,[2]; [6],39 FLUs
same,FLUs,[2]; [7],7397 FLUs
same,"Fluorescence time course, Rat",[2]; 2 min,180 FLUs
same,"Fluorescence time course, Rat",[2]; 4 min,419 FLUs
same,"Fluorescence time course, Rat",[2]; 5 min,545 FLUs
same,"Fluorescence time course, Rat",[2]; 10 min,1091 FLUs
same,"Fluorescence time course, Rat",[2]; 20 min,2151 FLUs
same,"Fluorescence time course, Rat",[2]; 30 min,3407 FLUs
same,"Fluorescence time course, Rat",[2]; 40 min,4669 FLUs
same,"Fluorescence time course, Rat",[2]; 50 min,6127 FLUs
same,"Fluorescence time course, Rat",[2]; 60 min,7397 FLUs
same,"Fluorescence time course, Rat",[2]; 70 min,9925 FLUs
same,"Fluorescence time course, Rat",[2]; 80 min,10959 FLUs
same,"Fluorescence time course, Rat",[2]; 90 min,12101 FLUs
same,"Fluorescence time course, Rat",[2]; 100 min,13732 FLUs
same,"Fluorescence time course, Rat",[2]; 110 min,15434 FLUs
same,"Fluorescence time course, Rat",[2]; 120 min,16666 FLUs
same,FLUs,"[3]; 0 μM NADH, 60 min",255 FLUs
same,FLUs,[3]; [8],2517 FLUs
same,"Fluorescence time course, Clostridium",[3]; 2 min,264 FLUs
same,"Fluorescence time course, Clostridium",[3]; 4 min,457 FLUs
same,"Fluorescence time course, Clostridium",[3]; 5 min,698 FLUs
same,"Fluorescence time course, Clostridium",[3]; 10 min,1195 FLUs
same,"Fluorescence time course, Clostridium",[3]; 20 min,2167 FLUs
same,"Fluorescence time course, Clostridium",[3]; 30 min,2896 FLUs
same,"Fluorescence time course, Clostridium",[3]; 40 min,3329 FLUs
same,"Fluorescence time course, Clostridium",[3]; 50 min,3519 FLUs
same,"Fluorescence time course, Clostridium",[3]; 60 min,3664 FLUs
same,"Fluorescence time course, Clostridium",[3]; 70 min,3803 FLUs
same,"Fluorescence time course, Clostridium",[3]; 80 min,3841 FLUs
same,"Fluorescence time course, Clostridium",[3]; 90 min,3798 FLUs
same,"Fluorescence time course, Clostridium",[3]; 100 min,3801 FLUs
same,"Fluorescence time course, Clostridium",[3]; 110 min,3820 FLUs
same,"Fluorescence time course, Clostridium",[3]; 120 min,3821 FLUs
same,reduction of substrate in live cells (confocal images),[4],only reduced once inside cells
"CC1=CC(=O)C(C)=C(C(C)(C)CC(=O)N(C)CCN(C)C(=O)Oc2ccc3c(c2)Oc2cc(O)ccc2C32OC(=O)c3ccccc32)C1=O (centres unmarked) [PBI 4412, Mono-quinone trimethyllock diamine fluorescein]",FLUs,[2]; [6],3772 FLUs
same,FLUs,[2]; [7],170571 FLUs
same,"Fluorescence time course, Rat",[2]; 2 min,10099 FLUs
same,"Fluorescence time course, Rat",[2]; 4 min,24171 FLUs
same,"Fluorescence time course, Rat",[2]; 5 min,33247 FLUs
same,"Fluorescence time course, Rat",[2]; 10 min,62502 FLUs
same,"Fluorescence time course, Rat",[2]; 20 min,106834 FLUs
same,"Fluorescence time course, Rat",[2]; 30 min,133278 FLUs
same,"Fluorescence time course, Rat",[2]; 40 min,151941 FLUs
same,"Fluorescence time course, Rat",[2]; 50 min,162636 FLUs
same,"Fluorescence time course, Rat",[2]; 60 min,170571 FLUs
same,"Fluorescence time course, Rat",[2]; 70 min,175380 FLUs
same,"Fluorescence time course, Rat",[2]; 80 min,177516 FLUs
same,"Fluorescence time course, Rat",[2]; 90 min,178423 FLUs
same,"Fluorescence time course, Rat",[2]; 100 min,180027 FLUs
same,"Fluorescence time course, Rat",[2]; 110 min,182051 FLUs
same,"Fluorescence time course, Rat",[2]; 120 min,181077 FLUs
same,FLUs,"[2]; NADH 0 μM, 60 minutes, rat diaphorase",3772 FLUs
same,FLUs,"[2]; NADH 1.25 μM, 60 minutes, rat diaphorase",26228 FLUs
same,FLUs,"[2]; NADH 2.5 μM, 60 minutes, rat diaphorase",51005 FLUs
same,FLUs,"[2]; NADH 5 μM, 60 minutes, rat diaphorase",97995 FLUs
same,FLUs,"[2]; NADH 10 μM, 60 minutes, rat diaphorase",170571 FLUs
same,FLUs,"[2]; NADH 20 μM, 60 minutes, rat diaphorase",183286 FLUs
same,FLUs,"[2]; NADH 40 μM, 60 minutes, rat diaphorase",185532 FLUs
same,FLUs,"[2]; NADH 80 μM, 60 minutes, rat diaphorase",183372 FLUs
same,FLUs,"[3]; 0 μM NADH, 60 min",3940 FLUs
same,FLUs,[3]; [8],125352 FLUs
same,"Fluorescence time course, Clostridium",[3]; 2 min,9933 FLUs
same,"Fluorescence time course, Clostridium",[3]; 4 min,24883 FLUs
same,"Fluorescence time course, Clostridium",[3]; 5 min,33881 FLUs
same,"Fluorescence time course, Clostridium",[3]; 10 min,60458 FLUs
same,"Fluorescence time course, Clostridium",[3]; 20 min,95260 FLUs
same,"Fluorescence time course, Clostridium",[3]; 30 min,112465 FLUs
same,"Fluorescence time course, Clostridium",[3]; 40 min,120688 FLUs
same,"Fluorescence time course, Clostridium",[3]; 50 min,123934 FLUs
same,"Fluorescence time course, Clostridium",[3]; 60 min,125352 FLUs
same,"Fluorescence time course, Clostridium",[3]; 70 min,126364 FLUs
same,"Fluorescence time course, Clostridium",[3]; 80 min,125242 FLUs
same,"Fluorescence time course, Clostridium",[3]; 90 min,124786 FLUs
same,"Fluorescence time course, Clostridium",[3]; 100 min,124434 FLUs
same,"Fluorescence time course, Clostridium",[3]; 110 min,124460 FLUs
same,"Fluorescence time course, Clostridium",[3]; 120 min,124182 FLUs
same,reduction of substrate in live cells (confocal images),[4],only reduced once inside cells
same,relationship of fluorescence to cell number,[5],linear correlation between cell number and fluorescence

# Reference: patent publication US9951372B2, “Compounds and methods for assaying redox state of metabolically active cells and methods for measuring NAD(P)/NAD(P)H” (PROMEGA CORPORATION, priority 2011, dated 2018)
